# Entries after “also recorded” stand apart in the source; their conditions may differ. Read-outs that look alike come from different tables or passages of the source.
# Tests used:
# [1] = Olaparib PK in mice bearing intracranial G7 GBM xenografts (mass spectrometry); format: in vivo, CD1 nude mice; settings: 50 mg/kg
# Method: Canine kidney epithelial cells, stably expressing human MDR1 cDNA (Madin-Darby canine kidney type II [MDCKII]–MDR1 cells) or empty vector (MDCKII control), were used to model the intact BBB and determine permeability coefficients of (^14C)-olaparib in the presence of ketoconazole (25 μM). Whole body autoradiography was performed on male pigmented rats after single oral administration of [^14C]-olaparib (15 mg/kg; 5 MBq/kg). For autoradiography studies, animal care and experiments were carried out in accordance with AstraZeneca guidelines, which comply with UK standards. […] Xenograft experiments were performed under the relevant UK Home Office Project Licence and carried out with ethical approval from the University of Glasgow under the Animal (Scientific Procedures) Act 1986 and the EU directive 2010. Mice were maintained in individually ventilated cages with environmental enrichment and following the guidelines of ARRIVE (Animal Research: Reporting of In Vivo Experiments). […] Ratiometric t-test analysis determined SER confidence intervals and P-values. Further details are available in the Supplementary Material.
# Apparent permeability coefficients were calculated for apical to basolateral (Papp a‒b) and basolateral to apical transport (Papp b‒a) as described in Methods. […] (B) Single oral doses of 15 mg/kg [14C]-olaparib were administered to male pigmented rats that were subsequently culled, sectioned, and subjected to whole body autoradiography at the timepoints shown. Radioactivity was excluded from the central nervous system in all animals at all timepoints. […] Blood, tumor, and contralateral (non tumor bearing) brain were harvested and snap frozen at the time points shown. […] Note different y-axis scales.
# MDR1 = target: T1, MDR1 (Homo sapiens, UniProt P08183); assay: Directional transport of [14C]-olaparib across MDCKII-MDR1 monolayers, with or without ketoconazole; format: in vitro ADME
# T1 construct: host or cells: MDCKII (Madin-Darby canine kidney type II) cells stably expressing human MDR1 cDNA
# recurrent GBM = assay: DCE-MRI of tumor perfusion and permeability before and after olaparib; format: in vivo, human; settings: stage 1 and dose expansion patients, cycle 0
# Method: Secondary endpoints included PFS at 6 months (PFS-6, assessed radiologically using the RANO criteria) and radiological measurement of BBB permeability and perfusion by diffusion weighted and dynamic contrast-enhanced (DCE) MRI. […] Further details of the imaging protocol are provided in the Supplementary Material. Confidence intervals for PFS data were calculated using the exact binomial distribution.
# The imaging protocol included four pre-contrast spoiled fast field echo (T1-FFE spoiled gradient echo) sequences with different flip angles (2o, 8o, 15o, 16-20o) for calculation of baseline T1 maps allowing estimation of contrast concentration from observed signal changes and a dynamic, contrast enhanced acquisition series with identical acquisition parameters as the 4th variable flip angle baseline T1 measurement (16-20o), consisting of 100-120 volumes with temporal spacing of 5.1-5.5 seconds (s). Gadolinium-based contrast agent (Gd-DTPA-BMA; Omniscan, GE Healthcare, Oslo, Norway) was injected by pressure injector as a 3 ml bolus at 4 ml/s (dose 0.1 mmol/kg) after acquisition of the seventh image volume, followed by saline flush. Data were analysed using the hybrid model [Li, Jackson Mag Res Med 2003] and in-house software. ROI placement was manual and enhancing pixels were identified through significant change in signal intensity following administration of contrast. […]
# T1 sequence (P08183 whole entry): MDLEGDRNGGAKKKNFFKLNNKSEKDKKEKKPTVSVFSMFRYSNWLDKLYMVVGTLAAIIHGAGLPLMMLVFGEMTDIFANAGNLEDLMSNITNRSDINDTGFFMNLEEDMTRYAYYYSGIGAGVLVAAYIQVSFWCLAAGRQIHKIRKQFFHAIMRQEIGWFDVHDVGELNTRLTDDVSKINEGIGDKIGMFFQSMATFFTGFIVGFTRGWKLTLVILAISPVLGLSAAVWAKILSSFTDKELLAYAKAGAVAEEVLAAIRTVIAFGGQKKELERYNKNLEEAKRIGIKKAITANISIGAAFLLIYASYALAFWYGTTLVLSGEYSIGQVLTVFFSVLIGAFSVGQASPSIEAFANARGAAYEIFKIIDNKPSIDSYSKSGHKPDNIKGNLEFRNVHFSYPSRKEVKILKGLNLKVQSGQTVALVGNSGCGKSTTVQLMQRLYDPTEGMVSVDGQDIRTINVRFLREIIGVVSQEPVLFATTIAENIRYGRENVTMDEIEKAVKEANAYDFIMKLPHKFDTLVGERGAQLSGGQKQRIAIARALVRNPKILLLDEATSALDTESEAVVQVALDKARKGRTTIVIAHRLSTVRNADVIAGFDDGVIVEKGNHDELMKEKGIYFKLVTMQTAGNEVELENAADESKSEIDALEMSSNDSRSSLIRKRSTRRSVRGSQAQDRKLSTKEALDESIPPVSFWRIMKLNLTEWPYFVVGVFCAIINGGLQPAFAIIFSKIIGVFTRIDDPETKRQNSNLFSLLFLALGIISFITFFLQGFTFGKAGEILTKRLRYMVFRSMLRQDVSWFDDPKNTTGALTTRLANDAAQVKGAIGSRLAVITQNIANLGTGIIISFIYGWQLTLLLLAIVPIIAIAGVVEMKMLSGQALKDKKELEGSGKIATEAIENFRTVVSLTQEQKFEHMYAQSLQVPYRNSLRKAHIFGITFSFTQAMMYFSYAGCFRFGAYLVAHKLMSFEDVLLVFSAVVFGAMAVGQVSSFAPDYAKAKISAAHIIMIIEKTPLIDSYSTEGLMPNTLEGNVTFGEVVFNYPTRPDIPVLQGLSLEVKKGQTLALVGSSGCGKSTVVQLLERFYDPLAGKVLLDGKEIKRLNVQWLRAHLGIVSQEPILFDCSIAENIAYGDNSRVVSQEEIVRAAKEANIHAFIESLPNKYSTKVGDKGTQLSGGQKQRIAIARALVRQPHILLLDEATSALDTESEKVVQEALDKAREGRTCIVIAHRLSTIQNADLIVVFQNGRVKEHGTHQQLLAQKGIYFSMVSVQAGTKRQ
smiles,measurement,setting,value
"O=C(c1cc(Cc2n[nH]c(=O)c3ccccc23)ccc1F)N1CCN(C(=O)C2CC2)CC1 [olaparib, 4-[3-(4-cyclopropanecarbonylpiperazine-1-carbonyl)-4-fluorobenzyl]-2H-phthalazin-1-one]",olaparib in contralateral hemisphere,[1]; 5 and 24 hours,undetectable
same,olaparib in tumor specimens,[1]; 5 hours,detectable in one tumor specimen
same,concentration at 2 h,"[1]; CD1 nude, mouse, contralateral (non-tumor bearing) brain, oral, contralateral (non-tumor bearing) cerebral hemisphere olaparib concentration, median, 50 mg/kg oral gavage",84 nM
same,concentration at 2 h,"[1]; CD1 nude, mouse, contralateral (non-tumor bearing) brain, oral, contralateral (non-tumor bearing) cerebral hemisphere olaparib concentration, range, 50 mg/kg oral gavage",53 to 114 nM
same,concentration at 2 h,"[1]; CD1 nude, mouse, plasma, oral, plasma olaparib level, median, 50 mg/kg oral gavage",1590 nM
same,concentration at 5 h,"[1]; CD1 nude, mouse, plasma, oral, plasma olaparib level, median, 50 mg/kg oral gavage, 5 hours",230 nM
same,concentration at 2 h,"[1]; CD1 nude, mouse, plasma, oral, plasma olaparib level, range, 50 mg/kg oral gavage",773 to 2830 nM
same,concentration at 2 h,"[1]; CD1 nude, mouse, tumor, po, tumor olaparib concentration, median, intracranial G7 xenograft, 50 mg/kg oral gavage",347 nM
same,concentration at 2 h,"[1]; CD1 nude, mouse, tumor, po, tumor olaparib concentration, range, intracranial G7 xenograft, 50 mg/kg oral gavage, 4 mice",110 to 2780 nM
same,"Papp A→B at 120 min, 3 µM","MDR1; human, MDCK-MDR1",0.53 ×10⁻⁶ cm/s
same,"Papp B→A at 120 min, 3 µM","MDR1; human, MDCK-MDR1, with ketoconazole 25 µM, read-out: Papp b-a + ketoconazole (SD)",16.3 ×10⁻⁶ cm/s
same,"Papp B→A at 120 min, 3 µM","MDR1; human, MDCK-MDR1, read-out: Papp b-a (SD)",42.7 ×10⁻⁶ cm/s
same,MDR1 substrate status,MDR1; olaparib 1–10 µM,substrate for multidrug resistance protein 1; also recorded: substrate for MDR1
same,reduction of apparent permeability of MDCKII-MDR1 cells to olaparib by ketoconazole,"MDR1; olaparib 1–10 µM, ketoconazole 25 µM",40–62%
same,changes in perfusion or permeability parameters between baseline and post-olaparib scans,recurrent GBM,no significant changes

# From PMC7746945 (Neuro-Oncology, 2020)
